Source: PubChem BioAssay AID1963829 (Molecular Pharmacology Branch, DTP, NCI, 2024)

test system: 935938-334-R-J1-PDC complex spheroid viability; assay: Anticancer human tumor 935938-334-R-J1-PDC patient-derived small intestine adenocarcinoma cell line growth inhibition [POLQ]; conditions: second compound 0.1 µM; first compound 1 µM; hits give low values
Summary of the method: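 Complex spheroid viability model combining PDC tumour cells with endothelial (HUVEC) and MSC stromal cells. Novobiocin, ART-558 or RP6685 were tested singly and in combination with standard and investigational anticancer drugs. Each was titrated in half-log steps from near clinical Cmax, or from 10 microM where Cmax was unknown.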
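Also: spheroids exposed to drugs for seven days before viability read; 100% = DMSO vehicle control wells.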

**Q.** `CCCS(=O)(=O)Nc1ccc(F)c(C(=O)c2c[nH]c3ncc(-c4ccc(Cl)cc4)cc23)c1F` + Cc1cccc(N(C)C(=O)C2C(O)CCN2c2nc(C)cc(C(F)(F)F)c2C#N)c1 was tested. Which viability, T/C did it give?
**A.** 121%

**Q.** For `COc1ccc([C@@H](O)c2cc(-c3ncnc4cc(N5CCOCC5)ccc34)c(F)cc2Cl)nn1` + Cc1cccc(N(C)C(=O)C2C(O)CCN2c2nc(C)cc(C(F)(F)F)c2C#N)c1, which viability, T/C is on record?
**A.** 60.3%

**Q.** For `CC(C)n1c(=O)n(C)c2cnc3cc(F)c(-c4ccc(OCCCN5CCCCC5)nc4)cc3c21` + Cc1cccc(N(C)C(=O)C2C(O)CCN2c2nc(C)cc(C(F)(F)F)c2C#N)c1, which viability, T/C is on record?
**A.** 82%

**Q.** `COc1cccc(OCCCN)c1-c1cc(Nc2cnc(C#N)cn2)n[nH]1` + Cc1cccc(N(C)C(=O)C2C(O)CCN2c2nc(C)cc(C(F)(F)F)c2C#N)c1 was tested. Which viability, T/C did it give?
**A.** 10.3%

same assay, conditions: second compound 0.1 µM; first compound 3.16 µM; hits give low values

**Q.** How did the viability, T/C turn out when `O=C(Nc1ccc(O)c(NS(=O)(=O)c2ccc(F)cc2)c1)c1ccc(-c2ccccc2)cc1` + COC1C(OC(N)=O)C(O)C(Oc2ccc3c(O)c(NC(=O)c4ccc(O)c(CC=C(C)C)c4)c(=O)oc3c2C)OC1(C)C was run?
**A.** 90.8%

**Q.** Which viability, T/C does the source give for `O=c1[nH]cc(F)c(=O)[nH]1` + Cc1cccc(N(C)C(=O)C2C(O)CCN2c2nc(C)cc(C(F)(F)F)c2C#N)c1 here?
**A.** 67.4%

**Q.** Which viability, T/C does the source give for `CC1COCCN1c1cc(C2(S(C)(=N)=O)CC2)nc(-c2ccnc3[nH]ccc23)n1` (configuration not stated) + Nc1ccc(C#CCN(C(=O)Cc2ncc(C(F)(F)F)cc2C(F)(F)F)c2ccc(F)cc2)nn1 here?
**A.** 35%

**Q.** With `CCCS(=O)(=O)Nc1ccc(F)c(C(=O)c2c[nH]c3ncc(-c4ccc(Cl)cc4)cc23)c1F` + Cc1cccc(N(C)C(=O)C2C(O)CCN2c2nc(C)cc(C(F)(F)F)c2C#N)c1 as the compound, how does the viability, T/C read?
**A.** 112%

**Q.** With `COc1ccc([C@@H](O)c2cc(-c3ncnc4cc(N5CCOCC5)ccc34)c(F)cc2Cl)nn1` + Cc1cccc(N(C)C(=O)C2C(O)CCN2c2nc(C)cc(C(F)(F)F)c2C#N)c1 as the compound, how does the viability, T/C read?
**A.** 61.4%

**Q.** How did the viability, T/C turn out when `CC(C)n1c(=O)n(C)c2cnc3cc(F)c(-c4ccc(OCCCN5CCCCC5)nc4)cc3c21` + Cc1cccc(N(C)C(=O)C2C(O)CCN2c2nc(C)cc(C(F)(F)F)c2C#N)c1 was run?
**A.** 110%

same assay, conditions: second compound 0.1 µM; first compound 10 µM; hits give low values

**Q.** `O=C(Nc1ccc(O)c(NS(=O)(=O)c2ccc(F)cc2)c1)c1ccc(-c2ccccc2)cc1` + COC1C(OC(N)=O)C(O)C(Oc2ccc3c(O)c(NC(=O)c4ccc(O)c(CC=C(C)C)c4)c(=O)oc3c2C)OC1(C)C was tested. Which viability, T/C did it give?
**A.** 72.4%

**Q.** How did the viability, T/C turn out when `O=c1[nH]cc(F)c(=O)[nH]1` + Cc1cccc(N(C)C(=O)C2C(O)CCN2c2nc(C)cc(C(F)(F)F)c2C#N)c1 was run?
**A.** 67.7%

**Q.** How did the viability, T/C turn out when `CC1COCCN1c1cc(C2(S(C)(=N)=O)CC2)nc(-c2ccnc3[nH]ccc23)n1` (configuration not stated) + Nc1ccc(C#CCN(C(=O)Cc2ncc(C(F)(F)F)cc2C(F)(F)F)c2ccc(F)cc2)nn1 was run?
**A.** 16%

**Q.** For `CCCS(=O)(=O)Nc1ccc(F)c(C(=O)c2c[nH]c3ncc(-c4ccc(Cl)cc4)cc23)c1F` + Cc1cccc(N(C)C(=O)C2C(O)CCN2c2nc(C)cc(C(F)(F)F)c2C#N)c1, which viability, T/C is on record?
**A.** 45%

**Q.** With `COc1ccc([C@@H](O)c2cc(-c3ncnc4cc(N5CCOCC5)ccc34)c(F)cc2Cl)nn1` + Cc1cccc(N(C)C(=O)C2C(O)CCN2c2nc(C)cc(C(F)(F)F)c2C#N)c1 as the compound, how does the viability, T/C read?
**A.** 34.5%

**Q.** How did the viability, T/C turn out when `CC(C)n1c(=O)n(C)c2cnc3cc(F)c(-c4ccc(OCCCN5CCCCC5)nc4)cc3c21` + Cc1cccc(N(C)C(=O)C2C(O)CCN2c2nc(C)cc(C(F)(F)F)c2C#N)c1 was run?
**A.** 88.3%

same assay, conditions: second compound 0.316 µM; first compound 0.00316 µM; hits give low values

**Q.** For `COc1cccc(OCCCN)c1-c1cc(Nc2cnc(C#N)cn2)n[nH]1` + Cc1cccc(N(C)C(=O)C2C(O)CCN2c2nc(C)cc(C(F)(F)F)c2C#N)c1, which viability, T/C is on record?
**A.** 96%

same assay, conditions: second compound 0.316 µM; first compound 0.01 µM; hits give low values

**Q.** Which viability, T/C does the source give for `COc1cccc(OCCCN)c1-c1cc(Nc2cnc(C#N)cn2)n[nH]1` + Cc1cccc(N(C)C(=O)C2C(O)CCN2c2nc(C)cc(C(F)(F)F)c2C#N)c1 here?
**A.** 95.2%

same assay, conditions: second compound 0.316 µM; first compound 0.0316 µM; hits give low values

**Q.** Which viability, T/C does the source give for `O=C(Nc1ccc(O)c(NS(=O)(=O)c2ccc(F)cc2)c1)c1ccc(-c2ccccc2)cc1` + COC1C(OC(N)=O)C(O)C(Oc2ccc3c(O)c(NC(=O)c4ccc(O)c(CC=C(C)C)c4)c(=O)oc3c2C)OC1(C)C here?
**A.** 95.3%

**Q.** How did the viability, T/C turn out when `O=c1[nH]cc(F)c(=O)[nH]1` + Cc1cccc(N(C)C(=O)C2C(O)CCN2c2nc(C)cc(C(F)(F)F)c2C#N)c1 was run?
**A.** 84%

**Q.** How did the viability, T/C turn out when `CC1COCCN1c1cc(C2(S(C)(=N)=O)CC2)nc(-c2ccnc3[nH]ccc23)n1` (configuration not stated) + Nc1ccc(C#CCN(C(=O)Cc2ncc(C(F)(F)F)cc2C(F)(F)F)c2ccc(F)cc2)nn1 was run?
**A.** 83.9%

**Q.** For `CCCS(=O)(=O)Nc1ccc(F)c(C(=O)c2c[nH]c3ncc(-c4ccc(Cl)cc4)cc23)c1F` + Cc1cccc(N(C)C(=O)C2C(O)CCN2c2nc(C)cc(C(F)(F)F)c2C#N)c1, which viability, T/C is on record?
**A.** 97.4%

**Q.** Which viability, T/C does the source give for `COc1ccc([C@@H](O)c2cc(-c3ncnc4cc(N5CCOCC5)ccc34)c(F)cc2Cl)nn1` + Cc1cccc(N(C)C(=O)C2C(O)CCN2c2nc(C)cc(C(F)(F)F)c2C#N)c1 here?
**A.** 116%

**Q.** `CC(C)n1c(=O)n(C)c2cnc3cc(F)c(-c4ccc(OCCCN5CCCCC5)nc4)cc3c21` + Cc1cccc(N(C)C(=O)C2C(O)CCN2c2nc(C)cc(C(F)(F)F)c2C#N)c1 was tested. Which viability, T/C did it give?
**A.** 97.5%

**Q.** With `COc1cccc(OCCCN)c1-c1cc(Nc2cnc(C#N)cn2)n[nH]1` + Cc1cccc(N(C)C(=O)C2C(O)CCN2c2nc(C)cc(C(F)(F)F)c2C#N)c1 as the compound, how does the viability, T/C read?
**A.** 48.1%

same assay, conditions: second compound 0.316 µM; first compound 0.1 µM; hits give low values

**Q.** How did the viability, T/C turn out when `O=C(Nc1ccc(O)c(NS(=O)(=O)c2ccc(F)cc2)c1)c1ccc(-c2ccccc2)cc1` + COC1C(OC(N)=O)C(O)C(Oc2ccc3c(O)c(NC(=O)c4ccc(O)c(CC=C(C)C)c4)c(=O)oc3c2C)OC1(C)C was run?
**A.** 97.9%

**Q.** How did the viability, T/C turn out when `O=c1[nH]cc(F)c(=O)[nH]1` + Cc1cccc(N(C)C(=O)C2C(O)CCN2c2nc(C)cc(C(F)(F)F)c2C#N)c1 was run?
**A.** 122%

**Q.** How did the viability, T/C turn out when `CC1COCCN1c1cc(C2(S(C)(=N)=O)CC2)nc(-c2ccnc3[nH]ccc23)n1` (configuration not stated) + Nc1ccc(C#CCN(C(=O)Cc2ncc(C(F)(F)F)cc2C(F)(F)F)c2ccc(F)cc2)nn1 was run?
**A.** 96.8%

**Q.** With `CCCS(=O)(=O)Nc1ccc(F)c(C(=O)c2c[nH]c3ncc(-c4ccc(Cl)cc4)cc23)c1F` + Cc1cccc(N(C)C(=O)C2C(O)CCN2c2nc(C)cc(C(F)(F)F)c2C#N)c1 as the compound, how does the viability, T/C read?
**A.** 115%

**Q.** With `COc1ccc([C@@H](O)c2cc(-c3ncnc4cc(N5CCOCC5)ccc34)c(F)cc2Cl)nn1` + Cc1cccc(N(C)C(=O)C2C(O)CCN2c2nc(C)cc(C(F)(F)F)c2C#N)c1 as the compound, how does the viability, T/C read?
**A.** 98.9%

**Q.** With `CC(C)n1c(=O)n(C)c2cnc3cc(F)c(-c4ccc(OCCCN5CCCCC5)nc4)cc3c21` + Cc1cccc(N(C)C(=O)C2C(O)CCN2c2nc(C)cc(C(F)(F)F)c2C#N)c1 as the compound, how does the viability, T/C read?
**A.** 94.9%

**Q.** `COc1cccc(OCCCN)c1-c1cc(Nc2cnc(C#N)cn2)n[nH]1` + Cc1cccc(N(C)C(=O)C2C(O)CCN2c2nc(C)cc(C(F)(F)F)c2C#N)c1 was tested. Which viability, T/C did it give?
**A.** 35.3%

same assay, conditions: second compound 0.316 µM; first compound 0.316 µM; hits give low values

**Q.** Which viability, T/C does the source give for `O=C(Nc1ccc(O)c(NS(=O)(=O)c2ccc(F)cc2)c1)c1ccc(-c2ccccc2)cc1` + COC1C(OC(N)=O)C(O)C(Oc2ccc3c(O)c(NC(=O)c4ccc(O)c(CC=C(C)C)c4)c(=O)oc3c2C)OC1(C)C here?
**A.** 102%

**Q.** How did the viability, T/C turn out when `O=c1[nH]cc(F)c(=O)[nH]1` + Cc1cccc(N(C)C(=O)C2C(O)CCN2c2nc(C)cc(C(F)(F)F)c2C#N)c1 was run?
**A.** 124%

**Q.** For `CC1COCCN1c1cc(C2(S(C)(=N)=O)CC2)nc(-c2ccnc3[nH]ccc23)n1` (configuration not stated) + Nc1ccc(C#CCN(C(=O)Cc2ncc(C(F)(F)F)cc2C(F)(F)F)c2ccc(F)cc2)nn1, which viability, T/C is on record?
**A.** 96.7%

**Q.** Which viability, T/C does the source give for `CCCS(=O)(=O)Nc1ccc(F)c(C(=O)c2c[nH]c3ncc(-c4ccc(Cl)cc4)cc23)c1F` + Cc1cccc(N(C)C(=O)C2C(O)CCN2c2nc(C)cc(C(F)(F)F)c2C#N)c1 here?
**A.** 119%

**Q.** `COc1ccc([C@@H](O)c2cc(-c3ncnc4cc(N5CCOCC5)ccc34)c(F)cc2Cl)nn1` + Cc1cccc(N(C)C(=O)C2C(O)CCN2c2nc(C)cc(C(F)(F)F)c2C#N)c1 was tested. Which viability, T/C did it give?
**A.** 97.6%
